{"source": "patent US11351185B2", "about": "“Use of isovalerylspiramycins as anti-cancer agents to inhibit metastasis” (priority 2020, dated 2022)", "key": {"[1]": {"test_system": "meningioma cell lines IOMM, JEN, CH-157", "test": "CCK8 cell viability assay, meningioma cell lines", "assay_type": "cell-based", "conditions": "48 hours", "procedure": "Cell viability was measured by Cell Counting Kit-8 (CCK-8, Dojindo Molecular Technologies, Tokyo, Japan). Cells were seeded in 96-well plates at a density of 3×10^3 cells/well and cultured for 24 hours before treatment with ISP I at different concentration. After treatment for a gradient ISP I concentration from 0 to 20 μg/ml for 48 hours, while control groups were only treated in PBS solution, 10 μl of CCK-8 solution were added to each well and cells were incubated for an additional 2 hours. The absorbance in each well at a wavelength of OD450 was detected by the Synergy H1 microplate reader, a product of BioTek (Winooski, Vt. USA)."}, "intracellular ROS": {"test_system": "intracellular ROS", "test": "ROS-Glo H2O2 assay", "assay_type": "cell-based", "conditions": "24 hours", "procedure": "Since glutathione peroxidase catalyzes the reduction of reactive oxidative species (ROS), the inventors assessed whether treatment with ISP I increased the generation of ROS in glioblastoma cell lines (LN229 and U251) and RCC cell lines (786-O and RCC4).\nCell ROS level change brought about by ISP I was measured by ROS-Glo H2O2 assay kit, a product of Promega (Madison, Wis. USA). After treatment with ISP I for 24 hours, H2O2 substrate was added and cells were incubated for 6 hours. After incubation the supernatant was collected and was incubated with ROS-Glo™ Detection Solution for 20 min at room temperature with protection from light. Luciferase data were obtained with the Synergy H1 microplate reader, a product of BioTek (Winooski, Vt. USA)."}, "U2OS cell line": {"test_system": "U2OS cell line", "test": "R-loop and EdU staining in U2OS cells", "assay_type": "cell-based, Human", "conditions": "6 hours", "excerpt": "In order to assess ISP I's effect within the nuclear compartment, the inventors evaluated DNA-RNA R-loop formation within ISP I-treated Human Bone Osteosarcoma Epithelial Cells (U2OS cell line). R-loops are DNA-RNA hybrid structures composed of a displaced single-stranded DNA hybridized with the nascent RNA transcript. Santo-Pereira et al., Nat. Rev. Genet. 16: 583 (2015). […] Teng et al., Nature communications 9: 4115 (2018).\nU2OS cells obtained from ATCC were transfected with plasmid containing RNaseH1 construct mutated at D210N (Addgene #111904) and WKKD (Addgene #111905). Stable monoclonal cells were selected with hygromycin.\nEdU and R-loop staining for U2OS cells was conducted as follows: U2OS cells were incubated with EdU for 20 min and washed with a brief PBS wash. These cells were then pre-extracted in PBS-T buffer (0.2% Triton X-100 in 1×PBS, phenylmethylsulphonylfluoride [PMSF], protease inhibitor cocktail (Sigma, P8340) and phosphatase inhibitor cocktail (Roche, P4906845001)) for 3 min on ice and washed with a brief PBS wash. Pre-extracted cells were fixed using 2.0% paraformaldehyde (PFA) solution in PBS. EdU staining was performed according to the manufacturer's instructions. Primary antibody staining was performed as follows: anti-V5-tag (Santacruz, sc-271926, 1:250 dilution). Secondary antibody staining was performed as follows: Alexa 568 conjugated anti-mouse IgG (1:500, ThermoFisher Scientific). A Zeiss LSM710 confocal microscopy was used for imaging. Images where scored in ZenBlue software by counting non-nucleolar R-loops foci, where nucleoli were masked based on intensity and size of R-loop staining and number of foci counted in the rest of the nucleus."}, "SELH [2]": {"molecular_target": "T1, SELH (Homo sapiens, UniProt Q8IZQ5)", "T1 sequence (Q8IZQ5 1-122)": "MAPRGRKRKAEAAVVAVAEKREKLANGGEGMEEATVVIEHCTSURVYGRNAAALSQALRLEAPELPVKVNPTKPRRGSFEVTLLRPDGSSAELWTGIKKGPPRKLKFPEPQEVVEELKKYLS", "test": "Drug affinity responsive target stability (DARTS) assay", "assay_type": "binding", "set-up": "endogenous in cells; host or cells: LN229", "conditions": "LN229 lysate; ISP I 40 μg/mL", "procedure": "To identify ISP I's molecular target, the inventors performed drug affinity responsive target stability (DARTS) assay in LN229 cells.\nThe inventors discovered that the binding of ISP I to its target proteins temporarily locks them into a stable conformational structure, which prevents their recognition by proteases. After evading protease degradation, the identity of ISP I's target proteins was determined using mass spectroscopy.\nDARTS assay data were taken to identify the target of ISP I in vitro. For this assay, the invenots used the protocol published by Lomenick et al., Proc. Nat'l Acad. Sci. USA 106: 21984 (2009). Briefly, LN229 cells were lysed with M-PER (Pierce) supplemented with protease and phosphatase inhibitors. After centrifugation at 14,000 rpm for 15 min, lysates were diluted to the same final volume and protein concentration with M-PER and were dissolved in TNC buffer [50 mM Tris-HCl (pH 8.0), 50 mM NaCl, 10 mM CaCl2)]. All steps were performed on ice or at 4° C. to help prevent premature protein degradation. […] Peptides were analyzed by LC/MS/MS on a Thermo LTQ-Orbitrap mass spectrometer with an Eksigent LC pump. For quantitative comparison of protein and peptide abundances, MS spectra were analyzed by means of the differential workflow of Rosetta Elucidator (Rosetta Inpharmatics)."}, "SELH [3]": {"molecular_target": "T1, SELH", "test": "Western blot of SELH protein level in treated cells", "assay_type": "cell-based", "set-up": "endogenous in cells; host or cells: LN229, 786-O, T98G, U118, U251, RCC4", "conditions": "for SELH protein expression, different concentrations: LN229 cells, 24 hours post-treatment", "procedure": "A cycloheximide (CHX) chase assay was completed to assess ISP I's effect on SELH protein degradation.\nWestern blotting was performed to detect the protein expression level of SELH, NRF2 and γH2AX regulated by ISP I. The cells were lysed by RIPA buffer from ThermoFisher Scientific, and the concentration was measured using DC Protein Assay, a Bio-Rad product. Equal amounts of protein of each sample were loaded for gel electrophoresis and were transferred to nitrocellulose membrane, blocked and incubated overnight at 4° C. with primary antibodies. Then the membranes were washed with TBST (3 times, 10 min each). Exposure, imaging, and data analysis were done using a KwikQuant Imager system, a product of Kindle Biosciences (Greenwich, Conn. USA). The following antibodies were used: anti-phospho-histone H2A.X (Ser139), anti-NRF2 (Cell Signaling, Danvers, Mass. USA), anti-SELH (Abcam, Cambridge, Mass. USA), anti-GAPDH (Millipore, Temecula, Calif. USA)."}}, "note": "Entries after “also recorded” stand apart in the source; their conditions may differ.", "data": [{"smiles": "COC1C(O)CC(=O)OC(C)CC=CC=CC(OC2CCC(N(C)C)C(C)O2)C(C)CC(CC=O)C1OC1OC(C)C(OC2CC(C)(O)C(OC(=O)CC(C)C)C(C)O2)C(N(C)C)C1O", "note": "(stereo not drawn) [ISP I, 4″-isolvalerylspiramycin I]", "values": [{"measurement": "cytotoxic effect on meningioma cell lines", "setting": "[1]", "result": "demonstrated a cytotoxic effect"}, {"measurement": "intracellular ROS level (ROS-Glo H2O2)", "setting": "intracellular ROS; 786-O and RCC4, 10 μg/ml", "result": "increased intracellular ROS levels"}, {"measurement": "intracellular ROS level (ROS-Glo H2O2)", "setting": "intracellular ROS; LN229 and U251, 10 μg/mL", "result": "increased intracellular ROS levels"}, {"measurement": "EdU incorporation (DNA replication)", "setting": "U2OS cell line", "result": "reduced EdU (DNA replication marker) incorporation into DNA in a dose-dependent manner"}, {"measurement": "R-loop formation", "setting": "U2OS cell line", "result": "increased R-loop accumulation"}, {"measurement": "EdU incorporation (DNA replication)", "setting": "U2OS cell line; listed as ISP 1", "result": "reduction in EdU incorporation"}, {"measurement": "R-loop formation", "setting": "U2OS cell line; listed as ISP 1", "result": "increase of R-Loops formation"}, {"measurement": "protein protected from protease (target identification by mass spectroscopy)", "setting": "SELH [2]", "result": "SELH was the most abundant primary protein present"}, {"measurement": "SELH protein levels in RCC cell lines", "setting": "SELH [3]; 786-O and RCC4, 10 μg/ml, 24 hours", "result": "decreased SELH levels; also recorded: inhibitory effect on SELH expression also was confirmed"}, {"measurement": "SELH protein expression, different concentrations", "setting": "SELH [3]", "result": "reduced SELH protein expression in LN229 cells in a dose-dependent manner"}, {"measurement": "SELH protein expression, different concentrations", "setting": "SELH [3]; listed as ISP 1", "result": "decline, in a dose-dependent manner, of SELH levels"}, {"measurement": "SELH protein levels in glioblastoma cell lines", "setting": "SELH [3]; T98G, U118, LN229, U251, 10 μg/mL, 24 hours", "result": "decreased SELH levels; also recorded: inhibitory effect on SELH expression also was confirmed"}]}]}
